Measurements published in ChEMBL document CHEMBL3885861, “Open TG-GATES”.

Species: Rattus norvegicus
Assay: Open TG-GATES - Regimen: Single
Format: toxicity, organism-based, Sprague-Dawley
Design: regimen Single, gender Male, age 6 weeks
Details: in vivo, po, 200 mg/kg, route gavage, dose level Middle; for APTT / Bas / Eos / Fbg / Hb / Ht / Lym / MCH / MCHC / MCV / Mono / Neu / PT / Plat / RBC / Ret / WBC: tissue Blood; for KIDNEY_L / KIDNEY_R / KIDNEY_TOTAL: tissue Kidney; for LIVER: tissue Liver; for A/G / ALP / ALT / AST / BUN / CRE / Ca / Cl / DBIL / GLC / IP / K / LDH / Na / PL / RALB / TBIL / TC / TG / TP / gamma-GTP: tissue Plasma

C[C@](N)(Cc1ccc(O)c(O)c1)C(=O)O [METHYLDOPA]
TERMINAL_BW (3 h): 187.9 g | APTT (3 h): 15.7 s | Bas (3 h): 0.2% | Eos (3 h): 0.8% | Fbg (3 h): 274 mg/dL | Hb (3 h): 13.1 g/dL | Ht (3 h): 39.2% | Lym (3 h): 79% | MCH (3 h): 21.5 pg | MCHC (3 h): 33.4% | MCV (3 h): 64.6 fL | Mono (3 h): 3.4% | Neu (3 h): 15.8% | PT (3 h): 12.4 s | Plat (3 h): 105.6 x10_4/uL | RBC (3 h): 607 x10_4/ul | Ret (3 h): 10.7% | WBC (3 h): 91.2 x10_2/uL | KIDNEY_L (3 h): 0.9 g | KIDNEY_R (3 h): 0.8 g | KIDNEY_TOTAL (3 h): 1.7 g | LIVER (3 h): 7.8 g | A/G (3 h): 0.9 | ALP (3 h): 1861.2 IU/L | ALT (3 h): 55 IU/L | AST (3 h): 80.2 IU/L | BUN (3 h): 9 mg/dL | CRE (3 h): 0.1 mg/dL | Ca (3 h): 11.4 mg/dL | Cl (3 h): 107.2 meq/L | DBIL (3 h): 0.008 mg/dL | GLC (3 h): 205.8 mg/dL | IP (3 h): 9.8 mg/dL | K (3 h): 4.6 meq/L | LDH (3 h): 64.4 IU/L | Na (3 h): 142.2 meq/L | PL (3 h): 129.2 mg/dL | RALB (3 h): 2.6 g/dL | TBIL (3 h): 0.058 mg/dL | TC (3 h): 78.6 mg/dL | TG (3 h): 45 mg/dL | TP (3 h): 5.4 g/dL | gamma-GTP (3 h): 1.2 IU/L | TERMINAL_BW (6 h): 189 g | APTT (6 h): 16.4 s | Bas (6 h): 0% | Eos (6 h): 0.6% | Fbg (6 h): 267.4 mg/dL | Hb (6 h): 13.5 g/dL | Ht (6 h): 41.1% | Lym (6 h): 73.8% | MCH (6 h): 21.1 pg | MCHC (6 h): 32.8% | MCV (6 h): 64.3 fL | Mono (6 h): 3% | Neu (6 h): 22.2% | PT (6 h): 12.2 s | Plat (6 h): 120.2 x10_4/uL | RBC (6 h): 640.2 x10_4/ul | Ret (6 h): 11.7% | WBC (6 h): 56.8 x10_2/uL | KIDNEY_L (6 h): 0.8 g | KIDNEY_R (6 h): 0.8 g | KIDNEY_TOTAL (6 h): 1.6 g | LIVER (6 h): 7.9 g | A/G (6 h): 0.9 | ALP (6 h): 1438.2 IU/L | ALT (6 h): 48.2 IU/L | AST (6 h): 71.6 IU/L | BUN (6 h): 6.6 mg/dL | CRE (6 h): 0.1 mg/dL | Ca (6 h): 11.8 mg/dL | Cl (6 h): 107 meq/L | DBIL (6 h): 0.006 mg/dL | GLC (6 h): 219.4 mg/dL | IP (6 h): 13 mg/dL | K (6 h): 5.3 meq/L | LDH (6 h): 58.8 IU/L | Na (6 h): 144.6 meq/L | PL (6 h): 130.2 mg/dL | RALB (6 h): 2.5 g/dL | TBIL (6 h): 0.054 mg/dL | TC (6 h): 85.8 mg/dL | TG (6 h): 45.8 mg/dL | TP (6 h): 5.3 g/dL | gamma-GTP (6 h): 1 IU/L | TERMINAL_BW (9 h): 186.6 g | APTT (9 h): 16.1 s | Bas (9 h): 0% | Eos (9 h): 1.2% | Fbg (9 h): 268.6 mg/dL | Hb (9 h): 13.1 g/dL | Ht (9 h): 38.8% | Lym (9 h): 77.6% | MCH (9 h): 22.3 pg | MCHC (9 h): 33.8% | MCV (9 h): 66 fL | Mono (9 h): 2.8% | Neu (9 h): 17.6% | PT (9 h): 12.2 s | Plat (9 h): 121.1 x10_4/uL | RBC (9 h): 588.8 x10_4/ul | Ret (9 h): 10.8% | WBC (9 h): 53.5 x10_2/uL | KIDNEY_L (9 h): 0.8 g | KIDNEY_R (9 h): 0.8 g | KIDNEY_TOTAL (9 h): 1.6 g | LIVER (9 h): 7.2 g | A/G (9 h): 0.9 | ALP (9 h): 1466.4 IU/L | ALT (9 h): 43.4 IU/L | AST (9 h): 71.8 IU/L | BUN (9 h): 7 mg/dL | CRE (9 h): 0.1 mg/dL | Ca (9 h): 11 mg/dL | Cl (9 h): 107 meq/L | DBIL (9 h): 0.008 mg/dL | GLC (9 h): 203.2 mg/dL | IP (9 h): 11.2 mg/dL | K (9 h): 4.9 meq/L | LDH (9 h): 57.4 IU/L | Na (9 h): 143.6 meq/L | PL (9 h): 131.6 mg/dL | RALB (9 h): 2.5 g/dL | TBIL (9 h): 0.07 mg/dL | TC (9 h): 83.6 mg/dL | TG (9 h): 49.6 mg/dL | TP (9 h): 5.3 g/dL | gamma-GTP (9 h): 1 IU/L | TERMINAL_BW (24 h): 192.7 g | APTT (24 h): 16 s | Bas (24 h): 0% | Eos (24 h): 1% | Fbg (24 h): 251.2 mg/dL | Hb (24 h): 13.2 g/dL | Ht (24 h): 39.1% | Lym (24 h): 75.4% | MCH (24 h): 22.1 pg | MCHC (24 h): 33.9% | MCV (24 h): 65.1 fL | Mono (24 h): 2.8% | Neu (24 h): 20.4% | PT (24 h): 12.6 s | Plat (24 h): 115.8 x10_4/uL | RBC (24 h): 600.4 x10_4/ul | Ret (24 h): 9.3% | WBC (24 h): 76.2 x10_2/uL | KIDNEY_L (24 h): 0.9 g | KIDNEY_R (24 h): 0.8 g | KIDNEY_TOTAL (24 h): 1.7 g | LIVER (24 h): 8.9 g | A/G (24 h): 0.9 | ALP (24 h): 1671.8 IU/L | ALT (24 h): 58.2 IU/L | AST (24 h): 80.8 IU/L | BUN (24 h): 15.8 mg/dL | CRE (24 h): 0.2 mg/dL | Ca (24 h): 11.4 mg/dL | Cl (24 h): 107.6 meq/L | DBIL (24 h): 0.014 mg/dL | GLC (24 h): 191 mg/dL | IP (24 h): 8.6 mg/dL | K (24 h): 4.6 meq/L | LDH (24 h): 73.6 IU/L | Na (24 h): 144.4 meq/L | PL (24 h): 136.4 mg/dL | RALB (24 h): 2.6 g/dL | TBIL (24 h): 0.064 mg/dL | TC (24 h): 80 mg/dL | TG (24 h): 68.6 mg/dL | TP (24 h): 5.5 g/dL | gamma-GTP (24 h): 1 IU/L
